From US7507739B2, “6-[(substituted)phenyl]triazolopyrimidines as anticancer agents” (Wyeth, priority 2003, dated 2009)
Marks after values point to notes of the source that are not given here.

How the values were obtained:
MAP-rich tubulin = assay: Tubulin polymerization test with MAP-rich tubulin; assay type: biochemical, bovine; conditions: 0.3 μM compound, 20 min, fold enhancement over control
Procedure: Medium is RPMI-1640 with L-glutamine, supplemented with 10% heat-inactivated fetal calf serum, 100 units/ml penicillin, and 100 μg/ml streptomycin (Gibco, Grand Island, N.Y.). Microtubule-associated protein (MAP)-rich tubulin, containing about 70% tubulin and 30% MAPs (#ML113), and highly purified tubulin (>99% pure, #TL238), both from bovine brain, are obtained from Cytoskeleton, Inc., Denver, Colo. PEM buffer (80 mM piperazine-N,N′-bis[2-ethanesulfonic acid], pH 6.9, 1 mM ethylene glycol-bis(β-aminoethyl ether)-N,N,N′,N′-tetraacetic acid, 1 mM magnesium chloride) and guanosine 5′-triphosphate (GTP) are also obtained from Cytoskeleton. [3H]paclitaxel, specific activity 14.7 Ci/mmol, is purchased from Moravek Biochemicals (Brea, Calif.). [^3H]vinblastine, specific activity 9.60 Ci/mmol and MicroSpin G-50 columns are obtained from Amersham Biosciences (Piscataway, N.J.). […] Other reagents are obtained from Sigma (St. Louis, Mo.).
Two variations of this procedure are done, one using MAP-rich tubulin and one using pure tubulin.
MAP-rich tubulin is dissolved in ice-cold PEM buffer containing 1 mM GTP (GPEM buffer) at a concentration of 1.3 mg/mL. The solution is centrifuged at top speed in an Eppendorf model 5415C microcentrifuge (Brinkmann Instruments, Westbury, N.Y.) for 10 min at […] immediately before use. The tubulin solution is added to wells of a ½-area 96-well plate (Costar No. 3696, Corning, Inc., Corning, N.Y.) already containing the compounds of interest. Each compound is tested in duplicate at a final concentration of 0.3 μM in a volume of 110 μL per well. The final DMSO concentration in all wells is 0.3%. Control reactions, which received compound solvent only, are done in quadruplicate. The plate is put in a SpectraMax Plus plate reader (Molecular Devices Corp. Sunnyvale, Calif.) thermostated at 24° and the absorbance of each well at 340 nm, a measure of the appearance of turbidity due to tubulin polymer formation, is determined every minute for 60 minutes. The absorbance at time 0 for each well is subtracted from each of the subsequent absorbance readings for that well, and then the duplicates are averaged.
In this assay, control reactions with MAP-rich tubulin show an S-shaped absorbance profile characterized by three phases: first, a lag phase during which no change in absorbance occurs; second, a polymerization phase in which absorbance increases; and third, a plateau phase in which absorbance has reached a maximum and little or no further change occurs. Polymerization enhancers such as paclitaxel and docetaxel shorten or eliminate the lag phase, increase the rate of the polymerization phase, and often increase the height of the plateau. […] The compounds of this invention have a taxane-like effect on the polymerization reaction. This has been expressed quantitatively in Table 5 by dividing the mean A340 of each sample at 20 min by the mean A340 of the control at 20 min to give a fold enhancement over control. […] Examples of this invention have factors ranging up to 8.1, with the majority in the 5 to 6-fold range.

COLO 205 cells = assay: MTS cytotoxicity test with COLO 205 cells; assay type: cell-based, human; conditions: Homo sapiens, COLO 205, 72 h, 3 days
Procedure: The assay, which is sold in kit form by Promega (Madison, Wis.; CellTiter 96 AQueous Non-Radioactive Cell Proliferation Assay), is based on the conversion by viable cells, but not by dead cells, of the tetrazolium salt, MTS (3-(4,5-dimethylthiazol-2-yl)-5-(3-carboxymethoxyphenyl)-2-(4-sulphophenyl)-2H-tetrazolium, inner salt), into a water-soluble colored formazan which is detected by spectrophotometry. Compounds are tested at nine concentrations, in order to determine IC50 values. For the test procedure, cells are harvested by trypsinization (or, in the case of non-adherent cells, by simple resuspension), washed, counted and distributed to wells of 96-well flat-bottom microtiter plates at 1000 cells per well in 200 μL of medium. In addition, one row of wells on a separate plate received cells as above (“time 0” plate). All plates are incubated at 37° in humidified 5% CO2 in air for about 24 hr.
On day 2, compounds for test are diluted and added to wells. Compounds are dissolved in DMSO at 10 mg/mL. For each compound, nine serial 2-fold dilutions are prepared in DMSO. Ten μL of each dilution in DMSO is transferred to 100 μL of medium, mixed well, and then 5 μL of this dilution is transferred in quadruplicate to wells containing cells. The final high concentration of each compound is typically 5 μM. Plates are returned to the incubator for three days. At the time of drug addition to the experimental plates, the MTS assay is run on the “time 0” plate. This produced the “time 0 MTS value” which is related to the number of viable cells per well at the time of drug addition.
After three days of culture with test compounds (day 5 overall), the MTS assay is done on all wells of the experimental plates. The absorbance values of the quadruplicate sample wells are averaged and divided by the average of the “time 0” values. The average of control wells without drug, divided by the average “time 0” value, gave the maximal relative increase in MTS color yield due to cell growth during the final three days of culture. The average of control wells with high drug concentration, divided by the “time 0” value, gave the minimal relative color yield for cells that are completely killed. The nine values for each compound are plotted against concentration, and the concentration that produced a relative color yield half way between the maximum and minimum is taken as the IC50 value.
COLO 205 is a human colon carcinoma cell line that is used for comparative testing of the examples of this invention and several reference compounds. This line is sensitive to paclitaxel and vincristine.

[1] = system: DLD1 Human Colon Carcinoma; assay: Human tumor xenograft test, DLD1; assay type: in vivo; conditions: DLD1, 20 mg/kg intravenously on days 1, 5, 9, and 13
Procedure: (§1) The ability of compounds of this invention to inhibit tumor growth in animals is studied in the athymic mouse xenograft standard pharmacological test. Female nu/nu mice in an outbred albino background are obtained from Charles River Laboratories (Wilmington, Mass.). Animals are injected subcutaneously on the flank with the desired tumor cell suspension. Several days later, mice with tumors of approximately 150 mm^3 are selected from those injected (staged) and randomly distributed into groups of 5-10. The day of staging is called day 0. Compounds of the invention, usually formulated in saline (exceptions are noted in tables), are administered to animals by intravenous injection or oral gavage on various schedules starting on day 0 or 1, as noted in the tables. The control group in each experiment is dosed with vehicle on the same schedule. Tumor size is measured every 3-7 days with calipers in two orthogonal dimensions, and tumor volume is calculated from the formula volume=[(length×width^2)/2].
(§2) Tumor/Control (T/C) is obtained by dividing the mean tumor volume of the treated group by the mean tumor volume of the control group on each measurement day. A treatment dose is defined as active if it produced a statistically significant T/C of 0.50 or less. A p value≦0.05, determined by one-side Student's t-test, is required for statistical significance. A treatment dose is defined as toxic if more than 10% of the animals died from a compound-related toxicity.

[2] = system: U87-MG Human Glioblastoma; assay: Human tumor xenograft test, U87-MG; assay type: in vivo, athymic mice
Procedure: as §1, §2

[3] = U87-MG, 2.5 mg/kg PO, day 0, vehicle Klucel
[4] = U87-MG, 5 mg/kg PO, day 0, vehicle Klucel
[5] = U87-MG, 10 mg/kg PO, day 0, vehicle Klucel
[6] = U87-MG, 20 mg/kg PO, day 0, vehicle Klucel
[7] = U87-MG, 30 mg/kg PO, day 0, vehicle Klucel
[8] = U87-MG, 20 mg/kg PO, days 1, 5, 9

Compound: C[C@H](Nc1c(-c2c(F)cc(N(C)CCCN(C)C)cc2F)c(Cl)nc2ncnn12)C(F)(F)F [Example 22, N^1-[4-(5-Chloro-7-{[(1S)-2,2,2-trifluoro-1-methylethyl]amino}[1,2,4]triazolo[1,5-a]pyrimidin-6-yl)-3,5-difluorophenyl]-N′,N^3,N^3-trimethylpropane-1,3-diamine]
- A340 Compound/A340 Control (MAP-rich tubulin): 1.2
- IC50 (COLO 205 cells): 1.67 µM

Compound: C[C@H](Nc1c(-c2c(F)cc(NCCCN(C)C)cc2F)c(Cl)nc2ncnn12)C(F)(F)F [Example 23, N^1-[4-(5-Chloro-7-{[(1S)-2,2,2-trifluoro-1-methylethyl]amino}[1,2,4]triazolo[1,5-a]pyrimidin-6-yl)-3,5-difluorophenyl]-N^3,N^3-dimethylpropane-1,3-diamine]
- A340 Compound/A340 Control (MAP-rich tubulin): 4.2
- IC50 (COLO 205 cells): 0.719 µM

Compound: C[C@H](Nc1c(-c2c(F)cc(NCCN(C)C)cc2F)c(Cl)nc2ncnn12)C(F)(F)F [Example 24, N^1-[4-(5-Chloro-7-{[(1S)-2,2,2-trifluoro-1-methylethyl]amino}[1,2,4]triazolo[1,5-a]pyrimidin-6-yl)-3,5-difluorophenyl]-N^2,N^2-dimethylethane-1,2-diamine]
- A340 Compound/A340 Control (MAP-rich tubulin): 1.2
- IC50 (COLO 205 cells): 1.73 µM

Compound: C[C@H](Nc1c(-c2c(F)cc(OCCCN3CCC3)cc2F)c(Cl)nc2ncnn12)C(F)(F)F [Example 12, 6-[4-(3-Azetidin-1-ylpropoxy)-2,6-difluorophenyl]-5-chloro-N-[(1S)-2,2,2-trifluoro-1-methylethyl][1,2,4]triazolo[1,5-a]pyrimidin-7-amine]
- A340 Compound/A340 Control (MAP-rich tubulin): 2.9
- IC50 (COLO 205 cells): 0.326 µM

Compound: CNCCCOc1cc(F)c(-c2c(Cl)nc3ncnn3c2N[C@@H](C)C(F)(F)F)c(F)c1 [Example 2, 5-Chloro-6-{2,6-difluoro-4-[3-(methylamino)propoxy]phenyl}-N-[(1S)-2,2,2-trifluoro-1-methylethyl][1,2,4]triazolo[1,5-a]pyrimidin-7-amine]
- tumor growth inhibition (activity call) [1]: active
- T/C on day 0 [2, 3]: 1.00
- T/C on day 4 [2, 3]: 0.84
- T/C on day 8 [2, 3]: 0.82
- T/C on day 11 [2, 3]: 0.74*
- T/C on day 14 [2, 3]: 0.74*
- T/C on day 0 [2, 4]: 1.02
- T/C on day 4 [2, 4]: 0.71*
- T/C on day 8 [2, 4]: 0.75*
- T/C on day 11 [2, 4]: 0.65**
- T/C on day 14 [2, 4]: 0.68**
- T/C on day 0 [2, 5]: 1.00
- T/C on day 4 [2, 5]: 0.60**
- T/C on day 8 [2, 5]: 0.51**
- T/C on day 11 [2, 5]: 0.40**
- T/C on day 14 [2, 5]: 0.41**
- T/C on day 0 [2, 6]: 0.97
- T/C on day 4 [2, 6]: 0.59**
- T/C on day 8 [2, 6]: 0.38**
- T/C on day 11 [2, 6]: 0.28**
- T/C on day 14 [2, 6]: 0.30**
- T/C on day 0 [2, 7]: 0.95
- T/C on day 4 [2, 7]: 0.41**
- T/C on day 8 [2, 7]: 0.24**
- T/C on day 11 [2, 7]: 0.19**
- T/C on day 14 [2, 7]: 0.23**
- A340 Compound/A340 Control (MAP-rich tubulin): 5.8
- IC50 (COLO 205 cells): 0.032 µM

Compound: C[C@H](Nc1c(-c2c(F)cc(SCCCN(C)C)cc2F)c(Cl)nc2ncnn12)C(F)(F)F [Example 18, 5-Chloro-6-(4-{[3-(dimethylamino)propyl]thio}-2,6-difluorophenyl)-N-[(1S)-2,2,2-trifluoro-1-methylethyl][1,2,4]triazolo[1,5-a]pyrimidin-7-amine]
- A340 Compound/A340 Control (MAP-rich tubulin): 5.8
- IC50 (COLO 205 cells): 0.192 µM

Compound: CNCCCOc1cc(F)c(-c2c(Cl)nc3ncnn3c2NCC(F)(F)F)c(F)c1 [Example 3, 5-Chloro-6-{2,6-difluoro-4-[3-(methylamino)propoxy]phenyl}-N-(2,2,2-trifluoroethyl)[1,2,4]triazolo[1,5-a]pyrimidin-7-amine]
- A340 Compound/A340 Control (MAP-rich tubulin): 6.7
- IC50 (COLO 205 cells): 0.025 µM

Compound: C[C@H](Nc1c(-c2c(F)cc(OCCCN3CCCC3)cc2F)c(Cl)nc2ncnn12)C(F)(F)F [Example 9, 5-Chloro-6-[2,6-difluoro-4-(3-pyrrolidin-1-ylpropoxy)phenyl]-N-[(1S)-2,2,2-trifluoro-1-methylethyl][1,2,4]triazolo[1,5-a]pyrimidin-7-amine]
- T/C on day 0 [2, 8]: 1.04
- T/C on day 3 [2, 8]: 0.93
- T/C on day 7 [2, 8]: 0.70
- T/C on day 10 [2, 8]: 0.50**
- T/C on day 13 [2, 8]: 0.34**
- T/C on day 17 [2, 8]: 0.45**
- tumor growth inhibition (activity call) ([2]; U-87 MG, oral dosing, 20 mg/kg): active
- A340 Compound/A340 Control (MAP-rich tubulin): 5.8
- IC50 (COLO 205 cells): 0.044 µM

Compound: C[C@H](Nc1c(-c2c(F)cc(CCCCN(C)C)cc2F)c(Cl)nc2ncnn12)C(F)(F)F [Example 26, 5-Chloro-6-{4-[4-(dimethylamino)butyl]-2,6-difluorophenyl}-N-[(1S)-2,2,2-trifluoro-1-methylethyl][1,2,4]triazolo[1,5-a]pyrimidin-7-amine]
- A340 Compound/A340 Control (MAP-rich tubulin): 4.6
- IC50 (COLO 205 cells): 0.665 µM
